From paper PMC1716192, “A Plant-Derived Morphinan as a Novel Lead Compound Active against Malaria Liver Stages” (PLoS Medicine, 2006)
Read-outs that look alike come from different tables or passages of the source.

Tests used:
Format in all cases: cell-based
[1] = test system: P. yoelii (265 BY strain) hepatic stages; experiment: In vitro assay for P. yoelii liver stage inhibition in primary mouse hepatocytes
Procedure: (§1) P. yoelii (265 BY strain) and P. falciparum (NF 54 strain) sporozoites were obtained by dissection of infected Anopheles stephensi salivary glands. Primary mouse hepatocytes were isolated as previously described and seeded in eight-well Lab-Tek plastic chamber slides (VWR, Fontenay-sous-Bois, France) previously coated with rat-tail collagen I (BD Biosciences, Le Pont de Claix, France) at a density of 10^5 cells per well. Mouse hepatocytes were cultured at 37 °C in 5% CO2 in William's E medium supplemented with 10% fetal calf serum, 1% L-glutamine, 1% sodium pyruvate, 1% insulin-transferrin-selenium, 1% nonessential amino acids, and 1% penicillin-streptomycin (all from Invitrogen, Cergy-Pontoise, France), for 24 h before inoculation of P. yoelii sporozoites (10^5 per well). Human liver fragments were collected following informed consent provided from patients undergoing a partial hepatectomy. The collection and use of these tissues were undertaken in accordance with French Government ethical regulations. Primary human hepatocytes were isolated from the healthy parts of these liver biopsies as previously described. Human hepatocytes were seeded in LabTek plastic chamber slides coated with collagen, at a density of 1.8 × 10^5 cells per well and cultured at 37 °C in 5% CO2 in the same medium as above, supplemented with 10^−7 M dexamethasone (Sigma) and 2% DMSO after complete cell adherence (12–24 h), for at least 48 h before inoculation of P. falciparum sporozoites (10^5 per well). For a standard assay, the plant extract, the purified compound, or primaquine was solubilized in DMSO, further diluted in culture medium (equal DMSO concentrations of <0.3% per well), and then added to hepatocyte cultures at the time of sporozoite inoculation. Three hours later, after sporozoite penetration into hepatocytes, cultures were washed and further incubated in the presence of the drug. Culture medium containing the appropriate drug concentration was changed daily until 48 h for P. yoelii, or until 5 d for P. falciparum. Parasites were quantified on the last day of incubation. For the in vitro timing experiments, tazopsine treatment of P. yoelii and P. falciparum cultures was undertaken for different periods during the cultivation: 0 h to 3 h, 3 h to 24 h, or 24 h to 48 h after P. yoelii sporozoite inoculation (quantification at 48 h), or 0 h to 2 d, or 3 d to 5 d after P. falciparum sporozoite inoculation (quantification at 5 d). […] Cells were stained with Evans Blue (0.4%), and parasites and cells nuclei were stained with 1 μg/ml of diamidino-phenylindole (DAPI; Sigma). Parasite numbers were counted under a fluorescence microscope with a 25× light microscope objective.
(§2) IC50 and TC50 were calculated by nonlinear regression using four-parameter logistic curves on the SigmaPlot 10.0 software (http://www.systat.com). Each IC50 or TC50 is expressed as a mean between two independent experiments, followed by the standard error of the mean.

[2] = test system: primary human hepatocytes; experiment: In vitro assay for cell viability (neutral red), human hepatocytes; conditions: 5 d drug exposure
Procedure: (§3) Primary hepatocytes of mice or humans were prepared as above and seeded in 96-well plates coated with collagen, at a density of 5 × 10^4 and 7 × 10^4 cells per well, respectively. Drugs were added to the culture medium, which was changed daily after 24 h or 48 h of incubation for mouse and human hepatocytes, respectively. After 48 h of drug exposure (mouse hepatocytes) or 5 d (human hepatocytes), 50 μl of neutral red (Sigma) at 0.02% in phosphate-buffered saline (PBS) were added per well and incubated for 24 additional hours. Cultures were then washed with PBS and the neutral red extracted with 1% SDS from viable cells and quantified by measuring the OD540 on a microplate autoreader photometer (BioTek Instruments, Winooski, Vermont, United States).
as §2

[3] = test system: P. falciparum (NF 54 strain) hepatic stages; experiment: In vitro assay for P. falciparum liver stage inhibition in primary human hepatocytes; conditions: P. falciparum hepatic stages in primary human hepatocytes; for IC50: quantified at 5 d, read-out: IC50
Procedure: as §1, with “objective. IC50 values, the drug concentration at which a 50% reduction in the number of parasites was observed, as compared to the number in the DMSO control cultures, were derived from two independent experiments in which each concentration was tested in triplicate wells.” for “objective.”
as §2

[4] = test system: primary mouse hepatocytes; experiment: In vitro assay for cell viability (neutral red), mouse hepatocytes; conditions: 48 h drug exposure
Procedure: as §3, §2

[5] = Plasmodium yoelii, Hepatocyte, 48 h

Row | SMILES | IC50 [1, 5] | IC50 ([1]; P. yoelii hepatic stages in primary mouse hepatocytes, quantified at 48 h, read-out: IC50) | IC50 ([1]; Plasmodium yoelii, Hepatocyte, 48 h, P. yoelii hepatic stages in primary mouse hepatocytes, quantified at 48 h, read-out: IC50) | IC90 ([1]; Plasmodium yoelii, Hepatocyte, P. yoelii hepatic stages in primary mouse hepatocytes, 48 h, read-out: IC90) | TC50 [2] | IC50 [3] | IC50 ([3]; Plasmodium falciparum, Hepatocyte, 120 h) | IC90 ([3]; Plasmodium falciparum, Hepatocyte, 120 h, 5 d, read-out: IC90) | TC50 [4]
1 | COC1=CC=C2[C@H]3Cc4ccc(OC)c5c4[C@@]2(CCN3C)[C@H]1O5 [thebaine, reference compound] | > 100000 nM |  |  |  |  |  |  |  | 
2 | COc1cc(NC(C)CCCN)c2ncccc2c1 (stereo not shown) [Primaquine, reference compound] |  | 640 ± 100 nM | ~1000 nM | > 30000 nM | 65200 ± 11900 nM | 800 ± 900 nM | ~1000 nM | 4100 ± 500 nM | 70500 ± 4300 nM
3 | COc1ccc2c3c1O[C@H]1[C@@H](O)C=C[C@H]4[C@@H](C2)N(C)CC[C@@]341 [codeine, reference compound] | > 100000 nM |  |  |  |  |  |  |  | 
